# Data: US4894389A, “Novel aminoalkyl-substituted heterocyclic sulfur compounds” (Merrell Dow Pharmaceuticals Inc., priority 1987, dated 1990)
# Columns and labels:
# [1] = target: T1, dopamine-β-hydroxylase (DBH) (Bos taurus, UniProt P15101); experiment: DBH inhibition kinetics: conversion of tyramine to octopamine, HPLC with fluorometric quantitation; format: biochemical; settings: read-out: inhibition constant (ki)
# T1 sequence (P15101 1-610): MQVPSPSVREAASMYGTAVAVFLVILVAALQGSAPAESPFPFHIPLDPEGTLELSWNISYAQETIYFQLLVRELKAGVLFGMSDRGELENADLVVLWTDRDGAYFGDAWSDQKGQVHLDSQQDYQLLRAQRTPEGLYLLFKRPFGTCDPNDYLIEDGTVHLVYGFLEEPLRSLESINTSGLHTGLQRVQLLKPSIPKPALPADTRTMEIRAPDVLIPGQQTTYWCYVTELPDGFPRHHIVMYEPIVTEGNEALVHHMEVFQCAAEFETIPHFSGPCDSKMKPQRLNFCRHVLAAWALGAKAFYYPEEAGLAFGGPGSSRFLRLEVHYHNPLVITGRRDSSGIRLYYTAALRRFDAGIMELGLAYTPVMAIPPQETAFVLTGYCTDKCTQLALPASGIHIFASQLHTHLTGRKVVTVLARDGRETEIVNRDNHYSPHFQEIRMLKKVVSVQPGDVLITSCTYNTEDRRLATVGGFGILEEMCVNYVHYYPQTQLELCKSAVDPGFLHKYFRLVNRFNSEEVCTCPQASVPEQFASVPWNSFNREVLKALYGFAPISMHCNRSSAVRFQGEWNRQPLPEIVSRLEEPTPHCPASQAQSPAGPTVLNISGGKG
# Description: The DBH inhibitory properties of the compounds of this invention can also readily be determined […] by standard and well known procedures for assaying the conversion of tyramine to octopamine in the presence of DBH, such as the procedure set forth by Feilchenfeld, N. B., Richter, H. W. and Waddell, W. H. in "Time-Resolved Assay of Dopamine Beta Hydroxylase Activity Utilizing High-Pressure Liquid Chromatography", Analyt. Biochem., 122, 124-128 (1982). Determination of the kinetics of DBH inhibition is exemplified by a procedure where the enzyme-assisted conversion of tyramine to octopamine is determined by incubating varying concentrations of test compound with constant concentrations of substrate, enzyme (DBH), molecular oxygen, an electron donor such as ascorbate and the necessary cofactors for the enzyme at optimal temperature and pH. After incubation, the product is separated out by high-performance liquid chromatography and quantitated fluorometrically, from which an inhibition constant (ki) can readily be calculated.
# [2] = system: spontaneously hypertensive rats; experiment: Antihypertensive activity in vivo: continuous recording of arterial blood pressure in conscious spontaneously hypertensive rats; settings: ip
# Protocol: For instance, test compounds are administered intraperitoneally (ip) to unanesthetized, spontaneously hypertensive rats and the arterial blood pressure is monitored continuously.
# [3] = target: T1, dopamine-β-hydroxylase (DBH); experiment: Time-dependent DBH inhibitory activity in vitro (tyramine substrate, oxygen uptake by polarographic electrode); format: biochemical
# Protocol: Since DBH is a major enzyme in the synthetic pathway of norepinephrine (NE), the presence of a DBH inhibitor would act to decrease the amount of NE produced, and thereby have an antihypertensive effect. The DBH inhibitory properties of the compounds of this invention can readily be determined by standard and well-known procedures. […] The test compound is added at the desired concentration, and the system is incubated. Aliquots are taken at different time intervals and DBH activity is measured using tyramine as the substrate. The reaction is followed by measuring oxygen uptake using a polarographic electrode and an oxygen monitor by the method of S. May, et al., J. Biol. Chem., 256, 2258 (1981).
compound,measurement,setting,value
"1,3-Dithiolane-2-ethanamine [Example 2]",Ki,[1],11 µM
NC/C=C1/CCCS1 [Example 6],in vivo antihypertensive activity,[2],active as an in vivo antihypertensive agent
NCC=C1SCCS1 [compound 1],activity in the time-dependent DBH assay,[3],most active compound of the compounds tested
